The text below walks through data of ChEMBL document CHEMBL3351633, “Anithiactins A-C, modified 2-phenylthiazoles from a mudflat-derived Streptomyces sp” (J Nat Prod, 2014).

Assay [1] concerns the target Acetylcholinesterase (Homo sapiens, UniProt P22303). The experiment in a line: Inhibition of AChE (unknown origin) assessed as inhibition of acetylcholine hydrolysis preincubated for 15 mins by Ellman method. For orientation: In Ellman's method for cholinesterases, released thiocholine reacts with DTNB.
The subject of assay [2] is A498. The experiment in a line: Cytotoxicity against human A498 cells up to 200 uM by modified MTT assay. In kind it is functional, cell-based.
Assay [3] has as its system ACHN. The experiment in a line: Cytotoxicity against human ACHN cells up to 200 uM by modified MTT assay. In kind it is functional, cell-based. In general terms: Formazan colour is commonly taken as a measure of viable cells.

The source made the active and inactive calls. The calls are words filed in the database; no cut-off is given here.

Acetylcholinesterase, sequence (P22303 whole entry): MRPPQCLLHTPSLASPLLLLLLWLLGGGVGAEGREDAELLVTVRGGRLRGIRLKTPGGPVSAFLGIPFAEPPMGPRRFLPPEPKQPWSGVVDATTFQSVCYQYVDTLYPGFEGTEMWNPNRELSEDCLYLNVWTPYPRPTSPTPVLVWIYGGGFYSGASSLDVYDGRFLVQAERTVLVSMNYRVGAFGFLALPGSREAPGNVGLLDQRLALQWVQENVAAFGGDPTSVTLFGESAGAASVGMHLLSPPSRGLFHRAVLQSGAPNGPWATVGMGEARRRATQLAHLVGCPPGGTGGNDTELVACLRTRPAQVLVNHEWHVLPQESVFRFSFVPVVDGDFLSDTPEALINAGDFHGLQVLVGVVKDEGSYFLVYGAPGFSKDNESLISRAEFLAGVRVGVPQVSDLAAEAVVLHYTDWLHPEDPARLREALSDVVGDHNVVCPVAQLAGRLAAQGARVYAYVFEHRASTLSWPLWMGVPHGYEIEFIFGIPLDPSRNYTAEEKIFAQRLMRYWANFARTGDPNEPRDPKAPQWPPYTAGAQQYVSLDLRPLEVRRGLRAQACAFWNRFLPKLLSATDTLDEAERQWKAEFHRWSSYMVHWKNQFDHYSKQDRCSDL

For the compound `CNc1ccccc1-c1nc(C(=O)OC)cs1`, the IC50 in assay [1] is 63 µM. Also, the outcome in assay [2] and in assay [3] was inactive.
As to `CNc1ccccc1-c1nc(C(N)=O)cs1`, the IC50 in assay [1] is 53 µM. For the same compound, the outcome in assay [2] and in assay [3] was inactive.
With `CNc1ccccc1-c1nc(C(=O)O)cs1`, in assay [1], the IC50 amounted to 68 µM. Moreover, the result in assay [2] and in assay [3] was inactive.

One may read the IC50 as the concentration that gives 50% inhibition.
